We go through two molecules from patent US20050031610A1, “CD44-related fragments, compositions and methods” (priority 2002, published 2005).

Entries after “also recorded” stand apart in the source; their conditions may differ.

For assay [1], the system named is γ-secretase. In words: In vitro CD44-ICD generation using membrane fractions from CD44-transfected 293 cells. Conditions: membrane fractions from dW and dAsp cells, 37° C. On the set-up: dose or concentration left out as unconfirmed. Type of assay: biochemical. The method, then: FIG. 4. In vitro generation of the CD44 intracellular domain (CD44-ICD). Membrane fractions prepared from either dW or dAsp cells transfected with full-length CD44 were incubated at 37° C. for the indicated hours with or without Cpd E (1 mM) or MG132 (50 mM). After the incubation, both the pellet (A) and the supernatant (B) were analyzed by Western blot analyses […] using anti-V5 antibody.
The incubation of the cytosol-free membrane fractions from dW cells transfected with CD44 led to the generation of two fragments (T1 and T2) in the membrane fractions (FIG. 4A) and the release of V5-epitope-tagged CD44-ICD into the soluble fraction (FIG. 4B).

Assay [2] concerns γ-secretase. In words: Accumulation of membrane-associated CD44 C-terminal fragments in CD44-transfected CHO cells (Western blot, anti-V5). It counts as cell-based. As to conditions: CHO cells transfected with CD44 C-terminal V5-tag, 16 hours. The method, then:
FIG. 1. The accumulation of membrane-associated C-terminal derivatives of CD44 by a γ-secretase inhibitor. The CHO cells transfected with constructs encoding CD44 with C-terminal V5-tag were incubated in the presence of the indicated concentrations of γ-secretase inhibitor Compound E (Cpd. E) for 16 hours. Detergent lysates were analyzed by Western blot analyses (4-20% Tris-Glycine SDS-PAGE) using anti-V5 antibody.
When constructs encoding full-length CD44 with C-terminal V5 epitope tag were transiently expressed, full-length CD44 (˜85 kDa) was constitutively processed to generate membrane-associated C-terminal fragments with apparent molecular weights of ˜19 to 22 kDa (FIG. 1). First, experiments were performed to determine whether a γ-secretase inhibitor blocks the putative intramembrane cleavage of CD44 to cause an accumulation of CD44 similar to that observed for APP and ErbB4 (Lee, H.-J., Jung, K.-M., Huang, Y. Z., Bennett, L. B., Lee, J. S., Mei, L. and Kim, T.-W., Presenilin-dependent γ-secretase-like intramembrane cleavage of ErbB4. J. Biol. Chem., 277:6318-6329 (2002)).
(Immunoblotting shows a protein as a band on a membrane.)

Another assay concerns CD44. In words: Ligand-induced CD44 cleavage / generation of CD44-ICD in CD44-transfected cells (Western blot, anti-V5). Type of assay: cell-based. From the text: FIG. 5. (A) Schematic representations of truncated CD44 constructs and putative cleavage sites of CD44. Starting amino acid sequences of truncated (ΔE) or intracellular (ICD) CD44 constructs and predicated proteolytic cleavage sites are indicated by arrows. Full-length (FL) and all ICD constructs contain C-terminal V5 tag, whereas all ΔE constructs harbor N-terminal HA tag located immediately after the signal peptide in addition to the C-terminal V5 tag. (B) Expression of truncated CD44 constructs in HEK293 cells. The lysates from the cells transfected with indicated constructs were analyzed by Western blot analyses. The locations of precursor polypeptide encoded by each constructs as well as the cleavage products (e.g. S1, T1, and T2) are shown on the right side of each blot. The lysates from full-length CD44-transfected cells grown in the absence (FL) or presence (FL+hyaluronan) of hyaluronan are shown as controls.
FIG. 6. Ligand-induced generation of CD44-ICD. Cells were treated for 24 hours with solvent only (Control), hyaluronan, hyaluronan plus Cpd. E, phorbol ester TPA, and TPA plus hyaluronan, and the lysates were analyzed by Western blotting using anti-V5 antibody.
(§1) It has been previously reported that high molecular weight forms of hyaluronan (HA) induce cell growth arrest (Morrison et al., Genes and Development, 15, 968-980, 2001; Herrlich et al., Ann. NY Acad. Sci. 910, 106-118, 2000).

A further assay has as its system HEK293 cells. Kind of assay: Hyaluronan-mediated growth retardation, count of EGFP-positive CD44-transfected HEK293 cells. Type of assay: cell-based. Conditions: 40 hour incubation. The method, then:
FIG. 7. Effects of a γ-secretase inhibitor in hyaluronan-mediated growth retardation. HEK293 cells were transfected with constructs encoding both full-length CD44 and enhance green fluorescence protein (EGFP) in a single plasmid. Identical number of transfected cells were plated into multiple dishes and incubated with hyaluronan, hyaluronan plus Cpd. E, TPA, and TPA plus Cpd. E. After 40 hour incubation, the number of EGFP-positive cells were counted. Values represent the mean±s.d.
as §1

For `C[C@H](NC(=O)Cc1cc(F)cc(F)c1)C(=O)N[C@H]1N=C(c2ccccc2)c2ccccc2N(C)C1=O` [Compound E], in the assay with γ-secretase [1], the “generation of T1 fragments” value was “not blocked”. The “accumulation of transgene-derived CD44 C-terminal fragments” value in the assay on γ-secretase [2] is “led to the accumulation”. The “inhibition of the HA-induced accumulation of S1 and T1 cleavage products” value in the assay with CD44 (hyaluronan plus Compound E) was “didn't inhibit”. For the same molecule, in the assay with CD44 (hyaluronan plus Cpd. E, 24 hours), the “effect on T2 cleavage products” value was “selectively affected”. In addition, the “effect on the growth inhibition induced by HA” value in the assay with HEK293 cells (hyaluronan plus Cpd. E) was “reverted the growth-inhibition”.
Turning to hyaluronan [HA], in the assay on CD44 (cells treated with high molecular weight forms of HA), the “levels of S1 and T1 cleavage products” value is “elevated”. The “generation of CD44-ICD” value in the assay with CD44 (cells treated with high molecular weight forms of HA, 24 hours) is “led to the generation of CD44-ICD”. The “generation of S1 and T2 cleavage” value in the assay on CD44 (full-length CD44-transfected HEK293 cells, FL vs. FL+hyaluronan) is given as “increased generation”. The “growth of cells transfected with CD44” value in the assay with HEK293 cells (HEK293 cells, full-length CD44 and EGFP) was “induced growth inhibition; also recorded: led to an inhibition of cell proliferation”.
